Entries after “also recorded” stand apart in the source; their conditions may differ.
Columns and labels:
Assay type in all cases: cell-based
[1] = tested on: human ovarian cancer cell line (A1847); test: 3-D ovarian cancer cell cluster viability (Prestoblue fluorescence); settings: for doses giving a statistically significant decrease in live cells: agent alone; for dose that had to be reached before the agent alone had an effect: ovarian cancer spheroids
Experimental: (§1) 96-well cell culture plates were loaded with increasing doses of GZ17 (graph on left) within a row. The doses were each added to 8 rows of each plate for 8 replicates at each dose. Cell clusters were pipetted into each well, and exposed for 24 hours to GZ17. At the completion of 24 hours, the wells were treated with 20 microliters of Prestoblue and allowed to incubate for up to 4 hours. The plates were read at 2-4 different time points after exposure to Prestoblue ranging from 30 minutes to 4 hours. The one-hour time point was the most often used and reported. The plates were loaded into a Perkin Elmer Enspire plate reader and each well was excited at 490 nm and read at 560 nm wavelengths. Relative fluorescence for each well was read.
The human ovarian cancer cell line (A1847) was used to create miniature tumors by loading the individual cells in a micromold according to U.S. Pat. App. Pub. […] Cells were pipetted into the mold and allowed 2-3 days to form 3-D clusters, mimicking miniature tumors. Cell clusters were removed from the mold by washing and gentle pipetting. Cell clusters were placed in media containing 0.5% FBS. The clusters were dispensed into 96-well plates at a density of approximately 10-15 clusters per well. […]
(§2) The powder was reconstituted in deionized water and agitated to ensure substantial homogeneity.

[2] = tested on: human alveolar adenocarcinoma cell line (H358)
Description: Pub. […] Cells were pipetted into the mold and allowed 3-5 days to form 3-D clusters, mimicking miniature tumors. The cell clusters were removed from the mold by washing and gentle pipetting. The cell clusters were placed in media containing 0.5% FBS. The clusters were dispensed into 96-well plates at a density of approximately 12-15 clusters per well for testing with the therapeutic composition designated herein as “GZ17” and a known chemotherapeutic agent (doxorubicin, aka adriamycin).
The cell clusters were tested against GZ17 and doxorubicin individually at various dosages, and then against the combination therapeutic containing both agents.
as §1
The chemotherapy classification of paclitaxel (also known as taxol) is a mitotic inhibitor. It works by stabilizing the microtubules. The microtubules are part of the cytoskeleton of the cell. When the cells go into cell division, the microtubules must disassemble so that the cell can divide. However, with paclitaxel, the microtubule polymer can't disassemble, and thus the cells can't divide which triggers apoptosis, or programmed cell death. There are subcategories of drugs in the mitotic inhibitor class including the vinca alkaloids (vincristine and vinblastine) and the colchicines class, podophyllotoxin and griseofulvin. Other drugs that work like paclitaxel are the taxanes and docotaxel.
The study was again repeating using fluorouracil. Fluorouracil is an anti-metabolite chemotherapy. It mimics pyrimidine and incorporates into the DNA and RNA blocking the ability of the cell to divide, and eventually ending in death of the cancer cells. Other drugs in this category include cytarabine and 6-azauracil.
as §2

[3] = tested on: human ovarian cancer cell line (A1847); test: 3-D ovarian cancer cell cluster viability (Prestoblue fluorescence); settings: paclitaxel alone at 3.16 μM

O=C(O)CCCc1ccc(N(CCCl)CCCl)cc1 [chlorambucil]
effect of the agent alone on ovarian cancer clusters [1]: no effect on its own | effect of the agent alone on lung cancer spheroids ([2]; agent alone): no effect

COc1cccc2c1C(=O)c1c(O)c3c(c(O)c1C2=O)C[C@@](O)(C(=O)CO)C[C@@H]3O[C@H]1C[C@H](N)[C@H](O)[C@H](C)O1 [doxorubicin]
doses giving a statistically significant decrease in live cells [1]: ≥ 0.5 µM | relative fluorescence (live cells) with increasing dose ([2]; agent alone, 24 h exposure): fluorescence declined | percent of the cancer cells caused to die ([2]; doxorubicin alone, 1.58 μM, 24 h): 36% | reduction in the number of cells from the baseline ([2]; doxorubicin alone, 0.002 to 0.158 μM): no statistically significant reduction; also recorded: had no effect

CC(=O)O[C@H]1C(=O)[C@@]2(C)[C@H]([C@H](OC(=O)c3ccccc3)[C@]3(O)C[C@H](OC(=O)[C@H](O)[C@@H](NC(=O)c4ccccc4)c4ccccc4)C(C)=C1C3(C)C)[C@]1(OC(C)=O)CO[C@@H]1C[C@@H]2O [paclitaxel]
doses giving a statistically significant decrease in live cells [1]: 0.01 µM | dose that had to be reached before the agent alone had an effect [1]: ≥ 31.6 µM | dose at which the number of live cells is reduced (other doses not significant) ([2]; paclitaxel alone): 5 µM | effect on cancer cell death [3]: no effect on cancer cell death

CN(Cc1cnc2nc(N)nc(N)c2n1)c1ccc(C(=O)N[C@@H](CCC(=O)O)C(=O)O)cc1 [methotrexate]
effect of the agent alone on lung cancer spheroids ([2]; agent alone): no effect alone

O=c1[nH]cc(F)c(=O)[nH]1 [fluorouracil]
effect of the agent alone on ovarian cancer clusters [1]: the dose response was minimal | dose that had to be reached before the agent alone had an effect [1]: ≥ 3.16 µM | doses giving a significant decrease in cell numbers ([2]; agent alone): ≥ 1.58 µM | dose that had to be reached before the agent alone had more than little effect ([2]; agent alone, lung cancer spheroids): ≥ 1.58 µM

N.N.[Cl][Pt][Cl] [cisplatin]
doses giving a statistically significant decrease in live cells [1]: ≥ 31.6 µM | dose that had to be reached before the agent alone had an effect [1]: ≥ 10 µM
